Experimental findings from US5726012A, “Rapid, high capacity nucleic acid based assay” (E. I. du Pont de Nemours and Company, priority 1994, dated 1998) are described below.

The subject of test [1] is HIV RF (HIV-1 RNA) in MT-2 cells. In words: Quantitation of cell associated HIV-1 RNA in infected MT-2 cells (correlation study). It counts as cell-based, HIV-1 (strain RF). The settings on record: for IC90 for HIV-1 RNA compared with IC90 for yield of infectious virus / cell associated RNA: 72 hours, MT-2 cells, HIV RF; for IC90: Human immunodeficiency virus 1, MT2, 72 h, 72 hrs after infection. Here is the method: HIV-1 infected cell lysates from MT-2 cells grown for 24, 48 and 72 hours after infection with different initial multiplicities of infection (MOI, e.g., TCID 50 per cell) of HIV-1RF were prepared by the cell pelleting method as described in Example 5. The tissue culture infectious dose (TCID 50) for HIV-1 RF stocks were determined in MT-2 cells by a modification of the method of Johnson et al., "Infectivity Assay", Techniques in HIV Research, Aldovina et al. (1990) wherein the tissue culture medium was not changed after four days. 40 μl of the lysate and 5 μl of 1 μM biotinylated `pol` oligo were combined with GED to a final volume of 100 μl and a GED concentration of 3M and a final biotinylated `pol` oligo concentration of 50 nM. Hybridization was carried out overnight at 37° C. in sealed polypropylene tubes. Each sample was diluted three-fold with deionized water to a final GED concentration of 1M and aliquots (120 μl) transferred to streptavidin coated microtiter plate wells. The biotin oligo-RNA complex solution was incubated with the immobilized streptavidin for two hours at room temperature, after which the plates were washed six times with DuPont ELISA plate wash buffer (phosphate buffered saline (PBS)/0.05% Tween 20) with a Denley plate washer. A second hybridization was carried out by adding 120 μl of hybridization cocktail containing 4× standard saline citrate (0.15M NaCl, 0.015 sodium citrate) (SSC), 0.66% Triton X-100 and 6.66% deionized formamide, 1 mg/ml bovine serum albumin (BSA) and 5 nM `pol` AP reporter oligo to each well. After hybridization for one hour at 37° C., the plate was again washed six times in PBS/0.05% Tween 20. Alkaline phosphatase activity was detected by addition of 100 μl of substrate detection buffer, consisting of: 0.2 mM 4-methylumbelliferyl phosphate (MUBP, JBL Scientific) in 2.5M diethanolamine pH 8.9 (JBL), 10 mM MgCl2, 5 mM Zinc acetate dihydrate, and 5 mM n-hydroxyethyl-ethylene-diamine-triacetic acid. The plates were incubated at 37° C. Fluorescence was measured using a microplate fluorometer (Dynateck) exciting at 365 nm and emitting at 450 nm. […] At MOI's greater than 1 for cells cultured 72 hours after infection the level of HIV-1RNA was diminished by cell death that occurs as a result of extensive virus replication.
MT-2 cells were infected by resuspension in medium (Dulbecco's Modified Eagles, 5% Fetal calf serum, 50 ug/ml glutamine, 50 ug/ml gentamycin) containing either 1 ×10^6 TCID 50/ ml (FIGS. 7 and 9) or 2.5×10^5 TCID 50/ml of HIV RF virus (FIGS. 8 and 9) to a final concentration of 5×10^5 cells/ml, with or without various concentrations of AZT or P9941 which is (2S,3R,4R, 5S)-N,N'-[(2-pyridylacetyl)-L-isoleucyl]-2,5-diamino-1,6-diphenyl-hexane-3,4-diol as described in WO91/18866, the disclosure of which is incorporated by reference. After incubation for four hours at 37° C., the cells were pelleted, the supernatant medium removed, and cells resuspended in an equal volume of medium ± compound without added virus. Culture was continued for a total of 72 hours at 37° C. after which time cells were pelleted, lysed by addition of 5M GED, and stored frozen at -70° C. until quantitation of HIV-1 RNA by the method described in Example 8 except that the `gag` capture/reporter probe set as described in Example 2 was employed. Supernatant medium from each sample was frozen at -120° C. until determination of yield of infectious virus by plaque assay as described in Example 11. […] Both cell associated RNA and yield of infectious virus were reduced by treatment with either AZT, a reverse transcriptase inhibitor, or P9941, an inhibitor of the HIV encoded protease. The concentration of AZT or P9941 required to inhibit HIV-1 RNA by 90% (IC90) was equivalent to the concentration of AZT or P9941 required to inhibit the yield of infectious virus by 90% (IC90). The concentrations of antiviral compound required to inhibit either HIV-1 RNA or yield of infectious virus by 90% (IC90) were very similar. […]

The test system of test [2] is HIV RF (infectious virus) in MT-2 cells. In words: Yield of infectious virus by plaque assay (yield reduction assay) in MT-2 cells. Type of test: cell-based, HIV-1 (strain RF). As to conditions: for yield of infectious virus: 72 hours, MT-2 cells, HIV RF; for IC90: Human immunodeficiency virus 1, MT2, 72 h. Here is the method:
Test compounds were dissolved in dimethylsulfoxide to 5 mg/ml and serially diluted into RPMI 1640 medium to 10 times the desired final concentration. MT-2 cells (5×10^5 /ml) in 2.3 ml were mixed with 0.3 ml of the appropriate test compound solution and allowed to sit for 30 minutes at room temperature. HIV-1 IIIB or HIV-1 RF virus (~5×10^5 plaque forming units/ml) in 0.375 ml was added to the cell and compound mixtures and incubated for one hour at 36° C. The mixtures were centrifuged at 1000 rpm for 10 minutes and the supernatants containing unattached virus were discarded. The cell pellets were suspended in fresh RPMI 1640 containing the appropriate concentrations of test compound and placed in a 36° C., 4% CO2 incubator. Virus was allowed to replicate for three days. Cultures were centrifuged for 10 minutes at 1000 rpm and the supernatants containing cell free progeny virus removed for plaque assay. Virus suspensions were serially diluted in RPMI 1640 and 1.0 ml of each dilution added to 9 ml of MT-2 cells in RPMI 1640. Cells and virus were incubated for three hours at 36° C. to allow for efficient attachment of the virus to cells. Each virus and cell mixture was aliquoted equally to two wells of a six well poly-L-lysine coated culture plate and incubated overnight at 36° C., 4% CO2. Liquid and unattached cells were removed prior to the addition of 1.5 ml of RPMI 1640 with 0.75% (w/v) Seaplaque agarose (FMC Corp) and 5% FCS. Plates were incubated for three days and a second RPMI 1640/agarose overlay added. After an additional three days at 36° C., 4% CO2, a final overlay of PBS with 0.75% Seaplaque agarose and 1 mg/ml MTT was added. The plates were incubated overnight at 36° C. Clear plaques on a purple background were counted and the number of plaque forming units of virus calculated for each sample. The virus titers of the progeny virus produced in the presence or absence of test compounds was determined by plaque assay as described above. The antiviral activity of test compounds was determined by the percent reduction in the virus titer with respect to virus grown in the absence of any inhibitors.
MT-2 cells were infected by resuspension in medium (Dulbecco's Modified Eagles, 5% Fetal calf serum, 50 ug/ml glutamine, 50 ug/ml gentamycin) containing either 1 ×10^6 TCID 50/ ml (FIGS. 7 and 9) or 2.5×10^5 TCID 50/ml of HIV RF virus (FIGS. 8 and 9) to a final concentration of 5×10^5 cells/ml, with or without various concentrations of AZT or P9941 which is (2S,3R,4R, 5S)-N,N'-[(2-pyridylacetyl)-L-isoleucyl]-2,5-diamino-1,6-diphenyl-hexane-3,4-diol as described in WO91/18866, the disclosure of which is incorporated by reference. After incubation for four hours at 37° C., the cells were pelleted, the supernatant medium removed, and cells resuspended in an equal volume of medium ± compound without added virus. Culture was continued for a total of 72 hours at 37° C. after which time cells were pelleted, lysed by addition of 5M GED, and stored frozen at -70° C. until quantitation of HIV-1 RNA by the method described in Example 8 except that the `gag` capture/reporter probe set as described in Example 2 was employed. Supernatant medium from each sample was frozen at -120° C. until determination of yield of infectious virus by plaque assay as described in Example 11. […] Both cell associated RNA and yield of infectious virus were reduced by treatment with either AZT, a reverse transcriptase inhibitor, or P9941, an inhibitor of the HIV encoded protease. The concentration of AZT or P9941 required to inhibit HIV-1 RNA by 90% (IC90) was equivalent to the concentration of AZT or P9941 required to inhibit the yield of infectious virus by 90% (IC90). The concentrations of antiviral compound required to inhibit either HIV-1 RNA or yield of infectious virus by 90% (IC90) were very similar. For both HIV RNA and yield of infectious virus, this IC90 value was affected by the initial MOI (Table 1).

Values after ≈ are worked out from the molar mass of the structure shown. Where two headings read alike, the source gives them in different places.

As to `Cc1cn([C@H]2C[C@H](N=[N+]=[N-])[C@@H](CO)O2)c(=O)[nH]c1=O` [AZT], the “IC90 for HIV-1 RNA compared with IC90 for yield of infectious virus” value in test [1] was “equivalent”. Moreover, the “cell associated RNA” value in test [1] is “reduced”. Besides, the IC90 (usually the point of the concentration-response curve where the effect stands at 90%) in test [1] (MOI = 0.5) amounted to 0.12 µg/mL (≈ 0.449 µM); in test [1] (MOI = 2.0) it was 0.2 µg/mL (≈ 0.748 µM); in test [2] (read-out: IC90, PFU, 72 hrs after infection, MOI = 0.5), 0.09 µg/mL (≈ 0.337 µM); in test [2] (read-out: IC90, PFU, 72 hrs after infection, MOI = 2.0), 0.28 µg/mL (≈ 1.05 µM). In addition, the “yield of infectious virus” value in test [2] is listed as “reduced”.
For the compound `CC[C@H](C)[C@H](NC(=O)Cc1ccccn1)C(=O)N[C@@H](Cc1ccccc1)[C@@H](O)[C@H](O)[C@H](Cc1ccccc1)NC(=O)[C@@H](NC(=O)Cc1ccccn1)[C@@H](C)CC` [P9941, (2S,3R,4R, 5S)-N,N'-[(2-pyridylacetyl)-L-isoleucyl]-2,5-diamino-1,6-diphenyl-hexane-3,4-diol], the “IC90 for HIV-1 RNA compared with IC90 for yield of infectious virus” value in test [1] was “equivalent”. In test [1], the “cell associated RNA” value is “reduced”. For the same compound, the IC90 turned out to be 0.55 µg/mL (≈ 0.719 µM) in test [1] (MOI = 0.5); 1.5 µg/mL (≈ 1.96 µM) in test [1] (MOI = 2.0); 0.38 µg/mL (≈ 0.497 µM) in test [2] (72 hrs after infection, MOI = 0.5, read-out: IC90, PFU); 1 µg/mL (≈ 1.31 µM) in test [2] (72 hrs after infection, MOI = 2.0, read-out: IC90, PFU). In test [2], the “yield of infectious virus” value is “reduced”.
